# Laboratory results: patent publication US8227428B2, “Anti-infammatory macrolide” (Glaxo Group Limited, priority 2009, dated 2012)
# Legend:
# [1] = In vitro stability in human whole blood; format: in vitro ADME; settings: 37° C., 2000 ng/mL, over 24 hours
# Protocol: (§1) An in vitro stability study in human whole blood and plasma is carried out over 24 hours at 37° C. Drug-free freshly collected human blood (CPD—citrate-phosphate-dextrose is used for all blood collections as anticoagulant) and plasma are spiked with a previously prepared standard solution of test compound to a final concentration of 2000 ng/mL. For each compound blood and plasma are spiked in duplicate and incubated for 24 hours. Two separate aliquots of blood or plasma (50 μL) are sampled from each incubation mixture at 0, 15, 30, 60, 120, 240 and 1440 minutes. All aliquots are mixed with an equal volume of water (50 μL) and extracted with 300 μL of acetonitrile/methanol (2:1) containing internal standard (roxithromycin). The samples are then vortexed, centrifuged and analysed by LC/MS/MS (MRM mode). Results are expressed as the percentage of compound remaining, expressed as the ratio of analyte/internal standard.
# [2] = In vitro stability in human plasma; format: in vitro ADME; settings: 37° C., 2000 ng/mL, over 24 hours
# Protocol: as §1
# [3] = Stability in buffer solutions pH 2 to pH 8 at 25° C.; format: physicochemical; settings: 25° C., during 24 hours
# Protocol: (§2) Stability in buffer solutions pH 2 to pH 8 at 25° C., and in bio-relevant media (SGF pH 1.6, Fasted SIF pH 6.5 and Fed SIF pH 5.0) at 37° C., during 24 hours is monitored. The samples are analysed by LC/MS.
# Buffer Solutions and Physiologically Relevant Media Used in Stability Assay:
# LC Conditions: Instrument HP1100
# Column: Waters XBridge C18, 2.1×50 mm, 3.5 μm
# Guard column: Waters XBridge C18, 2.1×10 mm, 3.5 μm
# • A) 0.1% HCOOH/H2O • B) 0.1% HCOOH/CH3CN Gradient Timetable: […]
# (§3) Flow: 0.3 mL/min Column temp.: 25° C. Sample temp.: 25° C. (for stability assay in buffer solutions) • 37° C. (for stability assay in bio-relevant media) Injector volume: 3 μL (without injection program) MS Conditions: Instrument HP MS API-ES, positive ion mode Mass Range: 150-1500 Fragmentor: 100 Gain: 1.0 Treshold: 150 Step size: 0.20 Gas Temperature: 350° C. Drying Gas Flow: 13 L/min Nebulizer Pressure: 35 psig Capillary Voltage Positive 4000 V • Negative 4000 V Sample Preparation: a) For Stability Assay in Buffer Solutions
# Compounds are dissolved in CH3CN to produce a 1 mg/mL stock solution. The stock solution is diluted to a concentration of 0.2 mg/mL (1 mL solution in 4 mL buffer) with appropriate buffer to produce a working solution.
# Each solution at each pH is then dispatched into vials that are sealed and stored at room temperature in order to be analyzed at the proper time point. Before analysis, pH values of prepared sample solutions are checked and adjusted if neccessary.
# [4] = Stability in bio-relevant media (SGF, Fasted SIF, Fed SIF) at 37° C.; format: physicochemical; settings: SGF pH 1.6, Fasted SIF pH 6.5, Fed SIF pH 5.0, 37° C., during 24 hours
# Protocol: as §2
# SGF (Simulated Gastric Fluid) pH 1.6
# Fasted SIF (Simulated Intestinal Fluid) pH 6.5
# Fed SIF (Simulated Intestinal Fluid) pH 5.0
# as §3
# b) For Stability Assay in Bio-Relevat Media
# b1) For SGF Media pH 1.6 Testing:
# Compounds are dissolved in SGF media pH 1.6 to give 0.2 mg/mL solution in case of compounds 1 and 2, and to give 0.1 mg/mL solution in case of compound 3. Solutions are then stored in a water bath at 37° C. and removed at the proper time point for LC/MS analysis. Before analysis, pH values of prepared sample solutions are checked and adjusted if necessary.
# b2) For Fasted SIF Media pH 6.5 Testing:
# (§4) Compounds are dissolved in Fasted SIF media pH 6.5 to give 2 mg/mL solution. Solutions are then dispatched into vials that are stored in a water bath at 37° C. and removed at the proper time point and diluted 10 times with CH3CN for LC/MS analysis. Before analysis, pH values of prepared sample solutions are checked and adjusted if necessary.
# b3) For Fed SIF Media pH 5.0 Testing:
# as §4, with “Fed” for “Fasted”, “5.0” for “6.5”, “40” for “10”
# [5] = tested on: Escherichia coli ATCC25922; test: Anti-bacterial screening, broth microdilution MIC; format: cell-based; settings: read-out: minimal inhibitory concentration (MIC)
# Protocol: (§5) Whole-cell antimicrobial activity of compounds against clinically relevant bacteria (Staphylococcus aureus ATCC13709, Streptococcus pneumoniae ATCC49619, Streptococcus pyogenes ATCC700294, Moraxella catarrhalis ATCC23246, Haemophilus influenzae ATCC49247 and Escherichia coli ATCC25922) is determined by broth microdilution using the Clinical and Laboratory Standards (CLSI) recommended procedure (Document M7-[…], Methods for Dilution Susceptibility Tests for Bacteria that Grow Aerobically). Compounds are dissolved in DMSO to produce a 50 mM stock solution. The stock solution is diluted to a concentration of 128 μg/mL in appropriate media (Haemophilus Test Medium for Haemophilus influenzae, Mueller-Hinton Broth for Staphylococcus aureus, Moraxella catarrhalis and Escherichia coli, and Mueller-Hinton Broth supplemented with 5% horse serum for Streptococcus pyogenes and Streptococcus pneumoniae) to produce a working solution. A Tecan Genesis 150 Workstation (Tecan Group Ltd. Mannedorf, Switzerland) is used to prepare serial two-fold dilutions (50 μL aliquots) of the working solution in a U-shape bottom 96 well microtitre plate. After the compounds are diluted, a 50 μL aliquot of the test isolate ( 1×10^6 cfu/ml) is added to each well of the microtitre plate. The final test concentrations range from 0.125-64 μg/mL. Inoculated plates are incubated at 35° C. in ambient air for 18 to 24 hours. The minimum inhibitory concentration (MIC) is determined as the lowest concentration of compound that inhibited visible growth.
# [6] = tested on: Haemophilus influenzae ATCC49247; test: Anti-bacterial screening, broth microdilution MIC; format: cell-based; settings: read-out: minimal inhibitory concentration (MIC)
# Protocol: as §5
# [7] = tested on: Moraxella catarrhalis ATCC23246; test: Anti-bacterial screening, broth microdilution MIC; format: cell-based; settings: read-out: minimal inhibitory concentration (MIC)
# Protocol: as §5
# [8] = tested on: Staphylococcus aureus ATCC13709; test: Anti-bacterial screening, broth microdilution MIC; format: cell-based; settings: read-out: minimal inhibitory concentration (MIC)
# Protocol: as §5
# [9] = tested on: Streptococcus pneumoniae ATCC49619; test: Anti-bacterial screening, broth microdilution MIC; format: cell-based; settings: read-out: minimal inhibitory concentration (MIC)
# Protocol: as §5
# [10] = tested on: Streptococcus pyogenes ATCC700294; test: Anti-bacterial screening, broth microdilution MIC; format: cell-based; settings: read-out: minimal inhibitory concentration (MIC)
# Protocol: as §5
# [11] = tested on: Lung neutrophilia induced by bacterial lipopolysaccharide (LPS); test: Lung neutrophilia induced by bacterial lipopolysaccharide (LPS) in male BALB/cJ mice; format: in vivo; settings: average; single dose 200 mg/kg i.p.; vs LPS challenged untreated animals
# Protocol: For intraperitoneal administration (i.p.) compounds are dissolved in a final concentration of 10 mg/mL. The required amount of compound is first dissolved in dimethylsulfoxide (DMSO, Sigma) and then diluted with 0.5% (w/v) methyl-cellulose so that the final DMSO concentration is 5% (v/v). The obtained solution is applied in a dose volume of 0.2 mL per 10 g of animal. Therefore, the compound dose is 200 mg/kg.
# Male BALB/cJ mice (Charles River, France), with an average weight of ˜30 g are randomly grouped (n=8 in testing group, 10 in positive control and 8 in negative control). Mice receive intraperitoneally (i.p.) a single dose of 200 mg/kg of test compound. Two hours after administration, 2 μg of LPS (from Escherichia coli serotype 0111:B4, Sigma), dissolved in sterile PBS in a volume of 60 μL, is intranasally administered to all experimental groups except the negative control group, which receive the same volume of vehicle (PBS). Animals are sacrificed approximately 24 hours after application of LPS in order to obtain bronchioalveolar lavage fluid (BALF), which is used to determine absolute number of cells and the percentage of neutrophils. Results are expressed as percentage decrease in total cell number and number of neutrophils in BALF of treated animals compared to positive control (LPS challenged, but untreated animals).
smiles,measurement,setting,value
"CC[C@H]1OC(=O)[C@H](C)[C@@H](O[C@H]2C[C@@](C)(OC)[C@@H](OC(=O)CN(CC)CC)[C@H](C)O2)[C@H](C)[C@@H](O[C@@H]2O[C@H](C)C[C@H](NC)[C@H]2O)[C@](C)(OC)C[C@@H](C)C(=O)N[C@H](C)[C@@H](O)[C@]1(C)O [Example 1, 3′-N-Demethyl-4″-O-(2-diethylaminoethanoyl)-6-O-methyl-9a-aza-9a-homoerythromycin A]",stability in whole blood,[1],stable
same,stability in plasma,[2],stable
same,stability in buffers pH 2 to 8,[3],showed stability
same,stability in all three bio relevant media,[4],Examples 1 and 3 showed stability in all three bio relevant media.
same,MIC,[5],> 64 µg/mL
same,MIC,[6],> 64 µg/mL
same,MIC,[7],> 64 µg/mL
same,MIC,[8],> 64 µg/mL
same,MIC,[9],> 64 µg/mL
same,MIC,[10],> 64 µg/mL
same,inhibition of the number of neutrophils in BALF,[11],more than 89%
